In one series the test system is HeLa cells. As to the kind of experiment: Cytotoxicity, MTT assay. Type of series: cell-based, human. More on the design: key to cell viability, mean: % viability = OD / OD of untreated control. The procedure:
(§1) HeLa cells were seeded on flat-bottomed 96-well plates (5000 cells per well) and incubated at 37 °C overnight. Varying concentrations of P-CyPt, Pt^IVNPs or CDDP (0, 1, 2, 5, 10, 20, 30, 50, 100, and 200 μM) in DMEM medium (100 μL) were added. Cells were either incubated for 48 h, or firstly incubated with these three compounds for 2 h, washed with PBS and then incubated with refreshed blank DMEM medium for another 48 h. Then, 3-(4,5)-dimethylthiahiazo (-z-y1)−3,5-di-phenytetrazoliumromide (MTT, 50 μL, 1 mg /mL in PBS) was added into each well. The cells were kept at 37 °C for 4 h, and the solution in each well was carefully removed, followed by addition of dimethyl sulfoxide (DMSO, 150 μL). The absorbance (OD) at 490 nm in each well was acquired on the microplate reader (Tcan). The absorbance of non-treated blank cells (OD control) was used as the control. The percentage of cell viability was calculated by dividing OD to the OD control. […]
(§2) Supplementary Table 4. The IC50 (μM) value of different Pt drugs toward HeLa, HepG2 and HEK-293T cells.a
(§3) Compounds Condition IC50 (μM) HeLa HepG2 HEK-293T […]
(§4) a The IC50 values were measured by the MTT assay. Values denote mean ± s.d. (n = 3 independent experiments). b Cells were incubated with varying concentrations of CDDP, P-CyPt or PtIVNPs for […]
(§5) c Cells were incubated with varying concentrations of CDDP, P-CyPt or PtIVNPs for 2 h, and the mediums were removed, washed with PBS. Blank culture mediums were added, and the cells were kept incubation for another 48 h.
Background: Formazan colour is commonly taken as a measure of viable cells.

Another series has as its system HEK-293T cells. Kind of series: Cytotoxicity, MTT assay. More on the design: key to cell viability, mean: % viability = OD / OD of untreated control. The class given is cell-based, human. The procedure:
as §1, §2, §3, §4, §5

Series [1] in a line: LogP measurement in solutions. Type of series: physicochemical. The conditions noted are these: octanol / octanol-saturated water. From the text:
incompatibility between particles i and j. Considering the relative position and chemical components of all the beads, we always keep aAB = aAC = 28, aAS = aCS = 25, and aBS = 35. The concentration of ABC or AB is fixed at 0.03. We performed the dynamics of total 81 000 DPD beads in a cubic box (303) under the periodic boundary conditions.
In these conditions, we carry out 1.0 × 106 steps for each simulation.
Molecular simulation using the Materials Studio program. For each molecule, the most favourable crystal packing was predicted using the Polymorph module as implemented in Materials Studio. The crystal structure prediction protocol includes three parts, Packing, Geometry Optimization and Clustering. […]
Evaluation of the dephosphorylated efficacy of P-CyPt towards ALP. […] The resulting fluorescence intensities in each well in the first 30 minutes were recorded on a Spark™ 10M Multimode Microplate Reader (λex/em = 680/710 nm), and every two-minute intervals record one point. The amount of CyPt at each time point was determined by a standard curve under the same […]
LogP measurement in solutions. […] The UV-vis absorption spectroscopy or fluorescence spectrum was recorded after being diluted in MeOH/H2O (1:1) system (<1% octanol). The logP value was calculated by dividing the amount in the octanol layer to […]

The structures appear in SMILES notation. Where “and” joins values, the source holds several entries; their conditions need not be identical. Equal entries are not always repeated. Where two headings read alike, the source gives them in different places. Where only a bound is given, the exact number is not on record here.

As to `[NH2][Pt]([NH2])([Cl])[Cl]` [CDDP, cisplatin], the “cell viability, mean” value with HeLa cells (Supplementary Fig. 23 (a), concentration 1 μM) is given as 94.4173; with HeLa cells (Supplementary Fig. 23 (a), concentration 2 μM), 90.2597; in the series with HeLa cells (Supplementary Fig. 23 (a), concentration 5 μM), 78.7193; in the series on HeLa cells (Supplementary Fig. 23 (a), concentration 10 μM), 62.7353; with HeLa cells (Supplementary Fig. 23 (a), concentration 20 μM) it was 41.6693; with HeLa cells (Supplementary Fig. 23 (a), concentration 30 μM) it was 27.22. Moreover, the “cell viability, mean” value turned out to be 19.0133 in the series with HeLa cells (Supplementary Fig. 23 (a), concentration 50 μM); 10.56 in the series with HeLa cells (Supplementary Fig. 23 (a), concentration 100 μM); 6.51 in the series on HeLa cells (Supplementary Fig. 23 (a), concentration 200 μM); 98.8285 in the series on HeLa cells (Supplementary Fig. 24 (a), concentration 1 μM); 97.2876 with HeLa cells (Supplementary Fig. 24 (a), concentration 2 μM); 95.6072 with HeLa cells (Supplementary Fig. 24 (a), concentration 5 μM). For the same compound, the “cell viability, mean” value in the series with HeLa cells (Supplementary Fig. 24 (a), concentration 10 μM) is 92.7687; in the series with HeLa cells (Supplementary Fig. 24 (a), concentration 20 μM), 89.3445; in the series on HeLa cells (Supplementary Fig. 24 (a), concentration 30 μM), 83.6169; in the series on HeLa cells (Supplementary Fig. 24 (a), concentration 50 μM) it was 75.0853; with HeLa cells (Supplementary Fig. 24 (a), concentration 100 μM) it was 65.2268; with HeLa cells (Supplementary Fig. 24 (a), concentration 200 μM), 49.73. Further, the “cell viability, mean” value is 95.9542 in the series with HEK-293T cells (Supplementary Fig. 23 (c), concentration 1 μM); 90.0454 with HEK-293T cells (Supplementary Fig. 23 (c), concentration 2 μM); 78.4742 in the series on HEK-293T cells (Supplementary Fig. 23 (c), concentration 5 μM); 63.7251 with HEK-293T cells (Supplementary Fig. 23 (c), concentration 10 μM); 47.669 in the series with HEK-293T cells (Supplementary Fig. 23 (c), concentration 20 μM); 34.929 in the series on HEK-293T cells (Supplementary Fig. 23 (c), concentration 30 μM). In addition, the “cell viability, mean” value with HEK-293T cells (Supplementary Fig. 23 (c), concentration 50 μM) worked out at 24.7568; in the series on HEK-293T cells (Supplementary Fig. 23 (c), concentration 100 μM) it was 14.7932; in the series on HEK-293T cells (Supplementary Fig. 23 (c), concentration 200 μM), 8.255; with HEK-293T cells (Supplementary Fig. 24 (c), concentration 1 μM) it was 98.6071; in the series on HEK-293T cells (Supplementary Fig. 24 (c), concentration 2 μM) it was 97.4354; with HEK-293T cells (Supplementary Fig. 24 (c), concentration 5 μM), 96.6584. Also, the “cell viability, mean” value in the series with HEK-293T cells (Supplementary Fig. 24 (c), concentration 10 μM) is 94.4248; with HEK-293T cells (Supplementary Fig. 24 (c), concentration 20 μM) it was 94.1486; in the series with HEK-293T cells (Supplementary Fig. 24 (c), concentration 30 μM), 93.57; in the series on HEK-293T cells (Supplementary Fig. 24 (c), concentration 50 μM), 92.6006; in the series on HEK-293T cells (Supplementary Fig. 24 (c), concentration 100 μM), 91.2991; with HEK-293T cells (Supplementary Fig. 24 (c), concentration 200 μM), 85.8671. Also, the IC50 in the series on HeLa cells (Supplementary Fig. 23 (a), read-out: IC50) was 14.5 µM; with HeLa cells (Supplementary Fig. 24 (a), read-out: IC50) it was 178 µM; in the series on HeLa cells (incubated 2 h, then blank medium 48 h, MTT, read-out: IC50 HeLa), 178 µM and > 150 µM; in the series with HeLa cells (incubated 48 h, MTT, read-out: IC50 HeLa), 14.5 ± 1.6 µM; with HEK-293T cells (HEK-293T, 2+48 h, individual samples, read-out: IC50-2+48h), greater than 200 µM; in the series with HEK-293T cells (HEK-293T, 2+48 h, mean of 3 samples, read-out: IC50-2+48h), greater than 200 µM. The IC50 in the series with HEK-293T cells (Supplementary Fig. 23 (c), read-out: IC50) is 17.4 µM; with HEK-293T cells (Supplementary Fig. 24 (c), read-out: IC50) it was greater than 200 µM; with HEK-293T cells (incubated 2 h, then blank medium 48 h, MTT, read-out: IC50 HEK-293T) it was greater than 200 µM; in the series on HEK-293T cells (incubated 48 h, MTT, read-out: IC50 HEK-293T) it was 17.4 ± 1.05 µM.
As to `CC1(C)C(/C=C/C2=C3Oc4cc(O)c(Cl)cc4C=C3CCC2)=[N+](CCCNC(=O)[C@@H](Cc2ccccc2)NC(=O)[C@@H](Cc2ccccc2)NC(=O)CCC(=O)[O][Pt]([NH2])([NH2])([OH])([Cl])[Cl])c2ccccc21` [CyPt], in series [1], the LogP value was 2.50 ± 0.03.

The term IC50 denotes the point on the concentration scale where inhibition reaches its midpoint.

These data come from paper PMC9925730, “Controlled sequential in situ self-assembly and disassembly of a fluorogenic cisplatin prodrug for cancer theranostics” (Nature Communications, 2023).
